From article PMC3536056 (Journal of immunology (Baltimore, Md. : 1950), 2012)
Entries after “also recorded” stand apart in the source; their conditions may differ.

Key:
H-2D^b = molecular target: T1, H-2D^b (Mus musculus, UniProt P01899); assay: Stability; assay type: binding; conditions: for half-life of peptide/H-2D^b complexes: RMA/s cells loaded overnight at 29 °C, washed, decay at 37 °C, flow cytometry; for pMHC stability (in words): versus wild type site V peptide, RMA/s decay at 37 °C
T1 sequence (P01899 25-362): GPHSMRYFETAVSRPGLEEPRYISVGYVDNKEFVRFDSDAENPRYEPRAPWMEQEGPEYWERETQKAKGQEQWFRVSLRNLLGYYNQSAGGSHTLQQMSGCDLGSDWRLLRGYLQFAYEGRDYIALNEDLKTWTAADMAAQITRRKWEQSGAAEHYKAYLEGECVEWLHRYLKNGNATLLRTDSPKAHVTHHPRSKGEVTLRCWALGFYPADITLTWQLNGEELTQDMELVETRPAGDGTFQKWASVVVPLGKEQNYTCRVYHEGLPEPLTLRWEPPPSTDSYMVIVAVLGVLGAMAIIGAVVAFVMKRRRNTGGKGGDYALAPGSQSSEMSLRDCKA
T1 sequence (P01887 21-119 partner): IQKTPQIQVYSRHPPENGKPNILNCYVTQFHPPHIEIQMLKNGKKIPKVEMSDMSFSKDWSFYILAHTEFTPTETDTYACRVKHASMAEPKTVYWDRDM

TCR-V T cells = assay type: cell-based, mice; conditions: for functional avidity for TCR-V T cells (in words): 10^−7–10^−12 M peptide, versus wild type site V
[1] = test system: polyclonal site V-specific T cells; assay: Intracellular IFN-γ, peptide-stimulated polyclonal site V-specific T cells; assay type: cell-based, mice; conditions: 10^−7–10^−12 M peptide; versus wild type site V
D^b = conditions: Flu determinants; cited from earlier work
[2] = molecular target: H-2D^b (mouse (endogenous in RMA/s)); assay: flow cytometry on cells
naïve TCR-V T cells = assay: In vivo proliferation of CFSE-labeled naïve TCR-V cells; parameters: species or system B6 mice; conditions: peptide s.c. 100 μg in IFA, or rVV i.v. 10^7 PFU; 3 days

Row | Substance | half-life of peptide/H-2D^b complexes (H-2D^b) | pMHC stability (in words) (H-2D^b) | half-life of the pMHC complex [2] [hours] | further results
1 | QAINNLDNL [G490A] | ~2.75 h | formed more stable pMHC than the wild type site V peptide; also recorded: moderately increased stability compared to wt site V; also recorded: modest increase in pMHC stability | – | reduction of functional avidity for TCR-V T cells (TCR-V T cells): five; functional avidity for TCR-V T cells (in words) (TCR-V T cells): not increased; functional avidity for polyclonal site V-specific T cells (in words) [1]: not increased
2 | ASNENMETM [NP366–374] | – | – | – | estimated half-life of D^b pMHC (D^b): ~ 4 hours
3 | site V variant peptide G490A (…) | – | – | 2.75 | –
4 | PA224–233: dominant D^b-Flu determinant (SSLENFRAYV; UniProt P03433 224-233, looked up, fragment) | – | – | – | estimated half-life of D^b pMHC (D^b): ~16 hours
5 | SAINNYAQKL [site I, reference compound] | greater than 4 hours | most stable | – | –
6 | SV40 TAg site I peptide (…) | – | – | > 4 | –
7 | SV40 TAg site V peptide (…) | – | – | 2 | –
8 | site V variant peptide Q489A (…) | – | – | 4 | fold increase of relative affinity against wild type site V [2]: 4 fold
9 | AGINNLDNL [Q489A] | approximately 4 hours | formed more stable pMHC than the wild type site V peptide; also recorded: most dramatic increase in pMHC stability | – | functional avidity for TCR-V T cells (in words) (TCR-V T cells): not increased; functional avidity for polyclonal site V-specific T cells (in words) [1]: not increased; TCR-V division on bypassing cross-presentation (in words) (naïve TCR-V T cells): almost all of the TCR-V cells underwent division
